Reference: ChEMBL document CHEMBL1201862, “PubChem BioAssay data set” (2004)
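Cultured in 96-well plates, cells were exposed to test compound for 48 hours across five concentrations. Here, GI50 denotes the concentration required for 50% inhibition of growth.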 Calls of active or inactive are those of the source. Rule as the data show it: active = GI50 up to about 1.1 µM and inactive = higher.

Legend:
Assay in all cases: growth of human tumour cells (NCI), 48 h
A498 = system: A498
LOX IMVI = system: LOX IMVI
HOP-62 = system: HOP-62
U-251 = system: U-251
786-0 = system: 786-0
OVCAR-4 = system: OVCAR-4
HT-29 = system: HT-29
HCC 2998 = system: HCC 2998
A549 = system: A549
SN12C = system: SN12C
SK-MEL-5 = system: SK-MEL-5
SK-MEL-2 = system: SK-MEL-2
SNB-19 = system: SNB-19
KM12 = system: KM12
NCI-H226 = system: NCI-H226
SW-620 = system: SW-620
SK-OV-3 = system: SK-OV-3

| Structure (SMILES) | GI50 (A498) | GI50 (LOX IMVI) | GI50 (HOP-62) | GI50 (U-251) | GI50 (786-0) | GI50 (OVCAR-4) | GI50 (HT-29) | GI50 (HCC 2998) | GI50 (A549) | GI50 (SN12C) | GI50 (SK-MEL-5) | GI50 (SK-MEL-2) | GI50 (SNB-19) | GI50 (KM12) | GI50 (NCI-H226) | GI50 (SW-620) | GI50 (SK-OV-3) |
| --- | --- | --- | --- | --- | --- | --- | --- | --- | --- | --- | --- | --- | --- | --- | --- | --- | --- |
| COc1cc(C(C)c2cc3c(cc2OCCN)OCO3)cc(OC)c1OC (stereo not drawn) | > 100 µM (inactive) | > 100 µM (inactive) | > 100 µM (inactive) | 42.5 µM (inactive) | > 100 µM (inactive) | > 100 µM (inactive) | > 100 µM (inactive) | > 100 µM (inactive) | > 100 µM (inactive) | > 100 µM (inactive) | > 10 µM (inactive) | 64.3 µM (inactive) | 54.8 µM (inactive) | 28.4 µM (inactive) | 32.1 µM (inactive) | > 100 µM (inactive) | – |
| CN(CCc1ccccn1)c1nc(=[N+](C)C)ss1 | > 100 µM (inactive) | > 100 µM (inactive) | > 100 µM (inactive) | > 100 µM (inactive) | > 100 µM (inactive) | > 100 µM (inactive) | 38.5 µM (inactive) | > 100 µM (inactive) | 35.3 µM (inactive) | > 100 µM (inactive) | > 100 µM (inactive) | > 100 µM (inactive) | > 100 µM (inactive) | 28.1 µM (inactive) | – | > 100 µM (inactive) | > 100 µM (inactive) |
| CCCCCCCCCC[C@@H](O)[C@@H]1CC[C@H]([C@H]2CC[C@@H]([C@@H](O)CCCCCCCCCC[C@H]3CC(CC(C)=O)C(=O)O3)O2)O1 (stereo partly drawn) | 16.2 µM (inactive) | 10.2 µM (inactive) | 15.1 µM (inactive) | 15 µM (inactive) | 11.4 µM (inactive) | < 0.01 µM (active) | 15.8 µM (inactive) | 25.5 µM (inactive) | 8.77 µM (inactive) | 10.3 µM (inactive) | < 0.01 µM (active) | 14.4 µM (inactive) | 10.4 µM (inactive) | – | 3.09 µM (inactive) | 13.5 µM (inactive) | 17.3 µM (inactive) |
| N=C(N)Cn1cnc2ccccc21 | > 100 µM (inactive) | > 100 µM (inactive) | > 100 µM (inactive) | > 100 µM (inactive) | > 100 µM (inactive) | – | – | > 100 µM (inactive) | > 100 µM (inactive) | > 100 µM (inactive) | > 100 µM (inactive) | > 100 µM (inactive) | > 100 µM (inactive) | > 100 µM (inactive) | > 100 µM (inactive) | > 100 µM (inactive) | > 100 µM (inactive) |
| Cn1c(C2CCCc3c2c2ccccc2n3C)cc2ccccc21 (stereo not drawn) | – | 130 µM (inactive) | 286 µM (inactive) | 174 µM (inactive) | > 318 µM (inactive) | – | 83 µM (inactive) | 186 µM (inactive) | 128 µM (inactive) | 222 µM (inactive) | 72.9 µM (inactive) | 85.7 µM (inactive) | > 318 µM (inactive) | 30.6 µM (inactive) | 216 µM (inactive) | 78 µM (inactive) | 100 µM (inactive) |
| C=CCN1C(=O)C(=O)N(CC=C)C(=O)C1=O | > 100 µM (inactive) | > 100 µM (inactive) | > 100 µM (inactive) | > 100 µM (inactive) | > 100 µM (inactive) | > 100 µM (inactive) | > 100 µM (inactive) | > 100 µM (inactive) | > 100 µM (inactive) | > 100 µM (inactive) | > 100 µM (inactive) | – | > 100 µM (inactive) | > 100 µM (inactive) | > 100 µM (inactive) | > 100 µM (inactive) | > 100 µM (inactive) |
| COC(=O)/C(C#N)=C1\CCC(O)N1 (stereo not drawn) | – | > 100 µM (inactive) | > 100 µM (inactive) | > 100 µM (inactive) | > 100 µM (inactive) | > 100 µM (inactive) | > 100 µM (inactive) | > 100 µM (inactive) | > 100 µM (inactive) | > 100 µM (inactive) | – | > 100 µM (inactive) | > 100 µM (inactive) | > 100 µM (inactive) | > 100 µM (inactive) | > 100 µM (inactive) | > 100 µM (inactive) |
| C/C(=N/NC(N)=S)C(CN(C)C)C(C1=C(O)c2ccccc2OC1)c1ccccc1 (stereo not drawn) | > 100 µM (inactive) | > 100 µM (inactive) | > 100 µM (inactive) | > 100 µM (inactive) | > 100 µM (inactive) | > 100 µM (inactive) | > 100 µM (inactive) | > 100 µM (inactive) | > 100 µM (inactive) | > 100 µM (inactive) | > 100 µM (inactive) | > 100 µM (inactive) | > 100 µM (inactive) | > 100 µM (inactive) | > 100 µM (inactive) | > 100 µM (inactive) | > 100 µM (inactive) |
| O=C(O)C1CCC(=O)N1C(=O)C(Cl)c1ccccc1 (stereo not drawn) | > 100 µM (inactive) | > 100 µM (inactive) | > 100 µM (inactive) | > 100 µM (inactive) | > 100 µM (inactive) | > 100 µM (inactive) | > 100 µM (inactive) | > 100 µM (inactive) | > 100 µM (inactive) | > 100 µM (inactive) | > 100 µM (inactive) | > 100 µM (inactive) | > 100 µM (inactive) | > 100 µM (inactive) | > 100 µM (inactive) | > 100 µM (inactive) | > 100 µM (inactive) |
| COc1cc2ccnc([C@@H](OC(=O)c3ccccc3)c3ccc(OC)c(OC)c3OC)c2cc1OC | 36.1 µM (inactive) | 39.1 µM (inactive) | – | 37.5 µM (inactive) | 35.6 µM (inactive) | 31 µM (inactive) | 37.7 µM (inactive) | 36.5 µM (inactive) | 47.1 µM (inactive) | 51.6 µM (inactive) | 23.1 µM (inactive) | 60.4 µM (inactive) | 53.1 µM (inactive) | 36.9 µM (inactive) | 35.5 µM (inactive) | 36.5 µM (inactive) | > 100 µM (inactive) |
| Cc1c(C(=O)C/C(=N\O)C(=O)Nc2cc(Cl)c(Cl)cc2Cl)[n+]([O-])c2ccccc2[n+]1[O-] | 19.9 µM (inactive) | 6.65 µM (inactive) | 23.3 µM (inactive) | 11 µM (inactive) | 22.2 µM (inactive) | 9.53 µM (inactive) | 15.2 µM (inactive) | 7.06 µM (inactive) | 25.6 µM (inactive) | 4.83 µM (inactive) | 5.47 µM (inactive) | 15.2 µM (inactive) | 36.1 µM (inactive) | 11.1 µM (inactive) | 17 µM (inactive) | 2.9 µM (inactive) | 43.7 µM (inactive) |
| Cc1c2c(ccc3ccccc32)c[n+]2ccccc12 | – | – | 3.23 µM (inactive) | 2.03 µM (inactive) | 10.1 µM (inactive) | 12 µM (inactive) | 49.7 µM (inactive) | 9.46 µM (inactive) | 1.44 µM (inactive) | – | 3.56 µM (inactive) | 15.8 µM (inactive) | 2.07 µM (inactive) | 1.09 µM (active) | 5.3 µM (inactive) | 5.5 µM (inactive) | – |
| CCCCCCCCCCCC(=O)CC(=O)c1c(O)cccc1O | – | 17.4 µM (inactive) | 23.7 µM (inactive) | 17.7 µM (inactive) | 23.3 µM (inactive) | 17.3 µM (inactive) | 17.5 µM (inactive) | 29 µM (inactive) | 17.9 µM (inactive) | 18.7 µM (inactive) | 19.1 µM (inactive) | 14.1 µM (inactive) | 20 µM (inactive) | 17.5 µM (inactive) | 16.7 µM (inactive) | 17.1 µM (inactive) | 30.4 µM (inactive) |
| N=c1c2ccccc2sc2nc3ccccc3n12 | > 100 µM (inactive) | > 100 µM (inactive) | > 100 µM (inactive) | > 100 µM (inactive) | 97.5 µM (inactive) | 33.9 µM (inactive) | > 100 µM (inactive) | > 100 µM (inactive) | > 100 µM (inactive) | > 100 µM (inactive) | > 100 µM (inactive) | > 100 µM (inactive) | > 100 µM (inactive) | > 100 µM (inactive) | 57.9 µM (inactive) | > 100 µM (inactive) | 72.3 µM (inactive) |
| Nc1ccc2n[se]nc2c1 | > 100 µM (inactive) | 29.6 µM (inactive) | > 100 µM (inactive) | > 100 µM (inactive) | > 100 µM (inactive) | > 100 µM (inactive) | > 100 µM (inactive) | > 100 µM (inactive) | > 100 µM (inactive) | > 100 µM (inactive) | > 100 µM (inactive) | 79.1 µM (inactive) | > 100 µM (inactive) | 48.1 µM (inactive) | – | > 100 µM (inactive) | > 100 µM (inactive) |
| OCCSCC/C(=N\N=C(/CCSCCO)c1ccccc1)c1ccccc1 | – | 93.8 µM (inactive) | > 100 µM (inactive) | > 100 µM (inactive) | 46.2 µM (inactive) | 61.4 µM (inactive) | 52 µM (inactive) | > 100 µM (inactive) | > 100 µM (inactive) | > 100 µM (inactive) | 88.7 µM (inactive) | 84.7 µM (inactive) | > 100 µM (inactive) | 66.8 µM (inactive) | > 100 µM (inactive) | > 100 µM (inactive) | > 100 µM (inactive) |
| COc1ccc(C2[C@@H](Cl)C(=O)N2c2ccc(OC)cc2)cc1 (stereo partly drawn) | 12.2 µM (inactive) | – | – | > 100 µM (inactive) | 36.6 µM (inactive) | – | > 100 µM (inactive) | > 100 µM (inactive) | > 100 µM (inactive) | > 100 µM (inactive) | > 100 µM (inactive) | 62.5 µM (inactive) | 45.5 µM (inactive) | > 100 µM (inactive) | > 100 µM (inactive) | > 100 µM (inactive) | 23.1 µM (inactive) |
